Results taken from patent publication US20230167073A1 (Teijin Pharma Limited, priority 2020, published 2023).

What follows are molecules tested against T1, Human TRPC6 (Homo sapiens, UniProt Q9Y210) (assay: Evaluation of TRPC6 channel inhibitory activity (1), FLIPR Calcium 5 Assay Kit, OAG stimulation (Compound Nos. 1-1293)). Conditions: Human TRPC6 stably-expressing cells, OAG 30 μM, FLIPR Calcium 5 Assay Kit; read-out: Inhibitory activity (pIC50 class) (converted).
T1 construct: expressed in transfected cells
T1 sequence (Q9Y210 1-931): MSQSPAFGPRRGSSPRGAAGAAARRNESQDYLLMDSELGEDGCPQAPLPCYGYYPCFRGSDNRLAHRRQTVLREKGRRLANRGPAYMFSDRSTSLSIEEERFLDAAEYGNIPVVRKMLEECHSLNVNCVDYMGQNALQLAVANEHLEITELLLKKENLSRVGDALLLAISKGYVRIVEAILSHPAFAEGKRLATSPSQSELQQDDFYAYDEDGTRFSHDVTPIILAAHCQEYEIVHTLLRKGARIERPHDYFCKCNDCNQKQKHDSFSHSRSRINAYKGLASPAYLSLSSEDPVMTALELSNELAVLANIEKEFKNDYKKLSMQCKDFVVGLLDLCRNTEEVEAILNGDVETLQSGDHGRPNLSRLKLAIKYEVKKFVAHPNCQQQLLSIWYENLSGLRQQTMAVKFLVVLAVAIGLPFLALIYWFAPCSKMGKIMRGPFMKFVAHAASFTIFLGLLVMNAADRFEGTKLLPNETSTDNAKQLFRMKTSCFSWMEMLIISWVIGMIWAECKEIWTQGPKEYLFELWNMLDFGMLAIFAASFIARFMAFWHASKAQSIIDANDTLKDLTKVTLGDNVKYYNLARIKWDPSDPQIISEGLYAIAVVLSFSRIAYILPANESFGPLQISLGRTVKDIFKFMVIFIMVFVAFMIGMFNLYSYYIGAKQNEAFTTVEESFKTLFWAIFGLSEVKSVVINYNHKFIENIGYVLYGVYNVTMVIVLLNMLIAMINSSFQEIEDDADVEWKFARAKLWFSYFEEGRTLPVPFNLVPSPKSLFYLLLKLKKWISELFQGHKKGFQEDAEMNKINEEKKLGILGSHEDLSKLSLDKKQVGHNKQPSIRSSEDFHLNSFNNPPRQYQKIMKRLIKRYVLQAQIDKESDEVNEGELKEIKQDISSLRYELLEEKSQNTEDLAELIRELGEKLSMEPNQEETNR
Type: cell-based
How it was run: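 TRPC6 (human) stable cells, 24 h culture; Ca5 no-wash dye + probenecid 30 min; cpd 20 min; OAG 30 μM final; ΔF (pre-cpd min to post-OAG max); 0%/100% = no cpd / no cpd + no OAG; 4PL → pIC50, binned +/++/+++.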

SMILES	IC50 [nM]
CC(C)OCCN(C)c1cc(Oc2cc(C#N)ccc2-c2ncc(CCN)cn2)n(C)n1 [compound 863, 4-[5-(2-aminoethyl)pyrimidin-2-yl]-3-[2-methyl-5-[methyl(2-propan-2-yloxyethyl)amino]pyrazol-3-yl]oxybenzonitrile]	> 1000
Cc1nn(C2CCCCC2)cc1Oc1cc(C#N)ccc1-c1ncc(CCN)cn1 [compound 864, 4-[5-(2-aminoethyl)pyrimidin-2-yl]-3-(1-cyclohexyl-3-methylpyrazol-4-yl)oxybenzonitrile]	10 to 1000
Cc1nn(C2CCCCC2)cc1Oc1cc(C#N)ccc1-c1ncc(CN)cn1 [compound 865, 4-[5-(aminomethyl)pyrimidin-2-yl]-3-(1-cyclohexyl-3-methylpyrazol-4-yl)oxybenzonitrile]	> 1000
Cn1nc(N2CC(F)(F)C(F)(F)C2)cc1Oc1cc(C#N)ccc1-c1ncc(CN)cn1 [compound 866, 4-[5-(aminomethyl)pyrimidin-2-yl]-3-[2-methyl-5-(3,3,4,4-tetrafluoropyrrolidin-1-yl)pyrazol-3-yl]oxybenzonitrile]	< 10
COC(C)(C)CN(C)c1cc(Oc2cc(C#N)ccc2-c2ncc(CN)cn2)n(C)n1 [compound 867, 4-[5-(aminomethyl)pyrimidin-2-yl]-3-[5-[(2-methoxy-2-methylpropyl)-methylamino]-2-methylpyrazol-3-yl]oxybenzonitrile]	> 1000
COC(C)(C)CN(C)c1cc(Oc2cc(C#N)ccc2-c2ncc(CCN)cn2)n(C)n1 [compound 868, 4-[5-(2-aminoethyl)pyrimidin-2-yl]-3-[5-[(2-methoxy-2-methylpropyl)-methylamino]-2-methylpyrazol-3-yl]oxybenzonitrile]	10 to 1000
Cn1nc(C2CC2)cc1Oc1cc(C#N)ccc1-c1ccc(N2CC[C@@H](F)[C@H](N)C2)cn1 [compound 869, 4-[5-[(4R)-3-amino-4-fluoropiperidin-1-yl]pyridin-2-yl]-3-(5-cyclopropyl-2-methylpyrazol-3-yl)oxybenzonitrile]	> 1000
Cn1nc(C2CC2)cc1Oc1cc(C#N)ccc1-c1ccc(CN)nn1 [compound 870, 4-[6-(aminomethyl)pyridazin-3-yl]-3-(5-cyclopropyl-2-methylpyrazol-3-yl)oxybenzonitrile]	10 to 1000
Cc1cc(Oc2cc(C#N)ccc2-c2ccc(CN)nn2)cc(N2CCOCC2)n1 [compound 871, 4-[6-(aminomethyl)pyridazin-3-yl]-3-(2-methyl-6-morpholin-4-ylpyridin-4-yl)oxybenzonitrile]	> 1000
Cc1cc(Oc2cc(C#N)ccc2-c2ncc([C@H](F)CN)cn2)cc(N2CCOCC2)n1 [compound 872, 4-[5-[(1S)-2-amino-1-fluoroethyl]pyrimidin-2-yl]-3-(2-methyl-6-morpholin-4-ylpyridin-4-yl)oxybenzonitrile]	< 10
CN(CC(F)F)c1cc(Oc2cc(C#N)ccc2-c2ncc(CN)cn2)n(C)n1 [compound 873, 4-[5-(aminomethyl)pyrimidin-2-yl]-3-[5-[2,2-difluoroethyl(methyl)amino]-2-methylpyrazol-3-yl]oxybenzonitrile]	< 10
CCN(CC(F)F)c1cc(Oc2cc(C#N)ccc2-c2ncc(CN)cn2)n(C)n1 [compound 874, 4-[5-(aminomethyl)pyrimidin-2-yl]-3-[5-[2,2-difluoroethyl(ethyl)amino]-2-methylpyrazol-3-yl]oxybenzonitrile]	< 10
Cc1cc(Oc2cc(C#N)ccc2-c2ncc([C@@H](F)CN)cn2)cc(N2CCOCC2)n1 [compound 876, 4-[5-[(1R)-2-amino-1-fluoroethyl]pyrimidin-2-yl]-3-(2-methyl-6-morpholin-4-ylpyridin-4-yl)oxybenzonitrile]	< 10
Cn1nc(N2CC(F)(F)C(F)(F)C2)cc1Oc1cc(C#N)ccc1-c1ncc(CCN)cn1 [compound 877, 4-[5-(2-aminoethyl)pyrimidin-2-yl]-3-[2-methyl-5-(3,3,4,4-tetrafluoropyrrolidin-1-yl)pyrazol-3-yl]oxybenzonitrile]	< 10
Cc1nc(Oc2cc(C#N)ccc2-c2ncc([C@@H](F)CN)cn2)cc(N2CCOCC2)n1 [compound 878, 4-[5-[(1R)-2-amino-1-fluoroethyl]pyrimidin-2-yl]-3-(2-methyl-6-morpholin-4-ylpyrimidin-4-yl)oxybenzonitrile]	< 10
Cc1nc(Oc2cc(C#N)ccc2-c2ncc(CCN)cn2)cc(N2C=NCCC2)n1 [compound 881, 4-[5-(2-aminoethyl)pyrimidin-2-yl]-3-[6-(5,6-dihydro-4H-pyrimidin-1-yl)-2-methylpyrimidin-4-yl]oxybenzonitrile]	> 1000
Cc1nc(Oc2cc(C#N)ccc2-c2ncc(CN)cn2)cc(N2CCC2=O)n1 [compound 882, 4-[5-(aminomethyl)pyrimidin-2-yl]-3-[2-methyl-6-(2-oxoazetidin-1-yl)pyrimidin-4-yl]oxybenzonitrile]	> 1000

Now from value to molecule:

IC50 [nM]	SMILES
10 to 1000	COCCN(C)c1cc(Oc2cc(C#N)ccc2-c2ncc(CCN)cn2)nc(C)n1 [compound 862, 4-[5-(2-aminoethyl)pyrimidin-2-yl]-3-[6-[2-methoxyethyl(methyl)amino]-2-methylpyrimidin-4-yl]oxybenzonitrile]
> 1000	Cc1nc(Oc2cc(C#N)ccc2-c2ncc(CCN)cn2)cc(N(C)C2COC2)n1 [compound 879, 4-[5-(2-aminoethyl)pyrimidm-2-yl]-3-[2-methyl-6-[methyl(oxetan-3-yl)amino]pyrimidin-4-yl]oxybenzonitrile]
10 to 1000	Cc1nc(Oc2cc(C#N)ccc2-c2ncc(CCN)cn2)cc(N2CCCC2=O)n1 [compound 880, 4-[5-(2-aminoethyl)pyrimidin-2-yl]-3-[2-methyl-6-(2-oxopyrrolidin-1-yl)pyrimidin-4-yl]oxybenzonitrile]
10 to 1000	Cc1nc(OCC2CC2(F)F)cc(Oc2cc(C#N)ccc2-c2ncc(CCN)cn2)n1 (stereo not drawn) [compound 883, 4-[5-(2-aminoethyl)pyrimidin-2-yl]-3-[6-[(2,2-difluorocyclopropyl)methoxy]-2-methylpyrimidin-4-yl]oxybenzonitrile]
10 to 1000	Cc1nc(OCC(F)(F)F)cc(Oc2cc(C#N)ccc2-c2ncc(CCN)cn2)n1 [compound 884, 4-[5-(2-aminoethyl)pyrimidin-2-yl]-3-[2-methyl-6-(2,2,2-trifluoroethoxy)pyrimidin-4-yl]oxybenzonitrile]
> 1000	Cc1nc(OCC2(C)COC2)cc(Oc2cc(C#N)ccc2-c2ncc(CCN)cn2)n1 [compound 885, 4-[5-(2-aminoethyl)pyrimidin-2-yl]-3-[2-methyl-6-[(3-methyloxetan-3-yl)methoxy]pyrimidin-4-yl]oxybenzonitrile]
> 1000	Cc1nc(Oc2cc(C#N)ccc2-c2ncc(CCN)cn2)cc(OC2COC2)n1 [compound 886, 4-[5-(2-aminoethyl)pyrimidin-2-yl]-3-[2-methyl-6-(oxetan-3-yloxy)pyrimidin-4-yl]oxybenzonitrile]
10 to 1000	Cc1nc(Oc2cc(C#N)ccc2-c2ncc(CCN)cn2)cc(OC2CCC2)n1 [compound 887, 4-[5-(2-aminoethyl)pyrimidin-2-yl]-3-(6-cyclobutyloxy-2-methylpyrimidin-4-yl)oxybenzonitrile]
10 to 1000	Cc1nc(Oc2cc(C#N)ccc2-c2ncc(CCN)cn2)cc(O[C@H]2CCOC2)n1 [compound 888, 4-[5-(2-aminoethyl)pyrimidin-2-yl]-3-[2-methyl-6-[(3S)-oxolan-3-yl]oxypyrimidin-4-yl]oxybenzonitrile]
> 1000	Cc1nc(Oc2cc(C#N)ccc2-c2ncc(CCN)cn2)cc(O[C@@H]2CCOC2)n1 [compound 889, 4-[5-(2-aminoethyl)pyrimidin-2-yl]-3-[2-methyl-6-[(3R)-oxolan-3-yl]oxypyrimidin-4-yl]oxybenzonitrile]
10 to 1000	COCCOc1cc(Oc2cc(C#N)ccc2-c2ncc(CCN)cn2)nc(C)n1 [compound 890, 4-[5-(2-aminoethyl)pyrimidin-2-yl]-3-[6-(2-methoxyethoxy)-2-methylpyrimidin-4-yl]oxybenzonitrile]
10 to 1000	Cc1nc(OCC(F)F)cc(Oc2cc(C#N)ccc2-c2ncc(CCN)cn2)n1 [compound 891, 4-[5-(2-aminoethyl)pyrimidin-2-yl]-3-[6-(2,2-difluoroethoxy)-2-methylpyrimidin-4-yl]oxybenzonitrile]
10 to 1000	Cc1nc(Oc2cc(C#N)ccc2-c2ncc(CCN)cn2)cc(OC2CC2)n1 [compound 892, 4-[5-(2-aminoethyl)pyrimidin-2-yl]-3-(6-cyclopropyloxy-2-methylpyrimidin-4-yl)oxybenzonitrile]
